Results as given in patent US20220202957A1, “LONG-LASTING ANALGESIA VIA TARGETED IN VIVO EPIGENETIC REPRESSION” (The Regents of the University of California, priority 2019, published 2022).

Columns and labels:
NaV1.7 = test: In vivo Nav1.7 repression in mice DRG (L4-L6) by qPCR after intrathecal AAV9; parameters: species or system mouse; conditions: gabapentin benchmarking experiment; 24 h after carrageenan; vs AAV9-mCherry
Protocol: (§1) Intrathecal AAV Injections. Anesthesia was induced with 2.5% isoflurane delivered in equal parts O2 and room air in a closed chamber until a loss of the righting reflex was observed. The lower back of mice was shaven and swabbed with 70% ethanol. Mice were then intrathecally (i.t.) injected using a Hamilton syringe and 30G needle as previously described 104 between vertebrae L4 and L5 with 5 μL of AAV for a total of 1E+12 vg/mouse. A tail flick was considered indicative of appropriate needle placement. Following injection, all mice resumed motor activity consistent with that observed prior to i.t. injection.
Tissue collection. […]
Gene Expression Analysis and qPCR. […] Relative mRNA expression was normalized to GAPDH levels and fold change was calculated using the comparative CT (AACT) method and normalized to GAPDH. Mean fold change and SD were calculated using Microsoft Excel.
Having established in vitro Nav1.7 repression, testing the effectiveness of the best ZFP-KRAB and KRAB-dCas9 constructs from the in vitro screens (Zinc-Finger-4-KRAB and KRAB-dCas9-dual-gRNA) in a carrageenan-induced model of inflammatory pain was performed. […] After 21 days, thermal pain sensitivity was measured to establish a baseline response threshold. […]

[1] = test system: carrageenan-induced model of inflammatory pain; test: Carrageenan-induced inflammatory pain model, thermal paw withdrawal latency (Hargreaves test); type: in vivo, mouse; conditions: gabapentin 100 mg/kg i.p.
Protocol: Animals Experiments. All animal procedures were performed in accordance with protocols approved by the Institutional Animal Care and Use Committee (IACUC) of the University of California, San Diego. All mice were acquired from Jackson Laboratory. Two-month-old adult male C57BL/6 mice (25-30 g) were housed with food and water provided ad libitum, under a 12 h light/dark cycle with up to 5 mice per cage. All behavioral tests were performed during the light cycle period.
as §1, with “Following injection, all mice resumed motor activity consistent with that observed prior to i.t. injection.” left out
Pain Models. […] Paw thickness was measured with a caliper before and 4 h after carrageenan/saline injections as an index of edema/inflammation. […]
Thermal Withdrawal Latency (Hargreaves Test): To determine the acute nociceptive thermal threshold, the Hargreaves' test was conducted using a plantar test device (Ugo Basile, Italy) 108. […] Paw withdrawal latencies were measured with a cutoff time of 30 seconds. […]

[2] = test system: paclitaxel-induced neuropathy; test: Paclitaxel-induced neuropathic pain model, tactile allodynia (von Frey filaments); type: in vivo, mouse; conditions: 21 days after i.t. injection, 24 h after last paclitaxel (4 x 8 mg/kg i.p.); gabapentin 100 mg/kg i.p.
Protocol: as §1
Paclitaxel-induced neuropathy: Paclitaxel (Tocris Biosciences, 1097) was dissolved in a mixture of 1:1:18 [1 volume ethanol/1 volume Cremophor EL (Millipore, 238470)/18 volumes of sterilized 0.9% (W/V) NaCl solution]. […]
Tactile allodynia: For the BzATP pain model, tactile thresholds (allodynia) were assessed 30 minutes, 1, 2, 3, 6, 24 hours after the BzATP injection. For the Paclitaxel model, tactile thresholds (allodynia) were assessed 24 hours and 29 days after the last Paclitaxel injection. […] The 50% probability of withdrawal threshold was assessed using von Frey filaments (Seemes Weinstein von Frey anesthesiometer; Stoelting Co., Wood Dale, Ill., USA) ranging from 2.44 to 4.31 (0.04-2.00 g) in an up-down method, as previously described 107. […]

Nav1.7 transcript = test: In vitro Nav1.7 repression by qPCR in transfected Neuro2a cells; type: cell-based, mouse; conditions: qPCR relative to GAPDH, KRAB-dCas9 constructs compared to the non-targeting gRNA control
Protocol: Mammalian Cell Culture. Neuro2a cells were grown in EMEM supplemented with 10% fetal bovine serum (FBS) and 1% Antibiotic-Antimycotic (Thermo Fisher Scientific) in an incubator at 37° C. and 5% CO2 atmosphere.
Lipid-Mediated Cell Transfections. One day prior to transfection, Neuro2a cells were seeded in a 24-well plate at a cell density of 1 or 2E+5 cells per well. […] of each plasmid was added to 25 μL of Opti-MEM medium, followed by addition of 25 μL of Opti-MEM containing 2 μL of Lipofectamine 2000. The mixture was incubated at room temperature for 15 min. The entire solution was then added to the cells in a 24-well plate and mixed by gently swirling the plate. Media was changed after 24 h, and the plate was incubated at 37° C. for 72 h in a 5% CO2 incubator. Cells were harvested, spun down, and frozen at […].
Gene Expression Analysis and qPCR. RNA from Neuro2a cells was extracted using Rneasy Kit (QIAGEN; 74104) and from DRG using Rneasy Micro Kit (QIAGEN; 74004). cDNA was synthesized from RNA using Protoscript II Reverse Transcriptase Kit (NEB; E6560L). […] Relative mRNA expression was normalized to GAPDH levels and fold change was calculated using the comparative CT (AACT) method and normalized to GAPDH. Mean fold change and SD were calculated using Microsoft Excel. […]

Which results are given for `NCC1(CC(=O)O)CCCCC1` [gabapentin]?
repression of Nav1.7 in DRG (L4-L6) by qPCR, significance (NaV1.7): significant repression of Nav1.7; PWL of carrageenan-injected paws at each time point vs AAV9-mCherry control (two-way ANOVA) ([1]; 30 min, 1, 2, 4, 24 h after carrageenan, AAV9 1E+12 vg/mouse i.t.): at the 30 minute, 1 hour, and four hour time points, but not the 24 hour time point; PWL (AUC of thermal hyperalgesia) in carrageenan-injected paws vs AAV9-mCherry control ([1]; gabapentin benchmarking experiment, day 21): significant increase in PWL; 50% tactile withdrawal threshold / tactile allodynia (von Frey) [2]: increased withdrawal thresholds

With “gRNA-2: guide RNA spacer GCAGGTGCACTCACCGGGT (SEQ ID NO: 130), used with KRAB-dCas9 (listed as DNA, chemistry not given here)” as the compound, how does the “repression of the Nav1.7 transcript” value (Nav1.7 transcript) read?
The value was 56%.
